Assay in all cases: relative viability (nuclei count vs DMSO), 5 days (fraction); higher = more cells survive
Compound in the experiment “Erlotinib + Pictilisib”: C#Cc1cccc(Nc2ncnc3cc(OCCOC)c(OCCOC)cc23)c1 [Erlotinib] + CS(=O)(=O)N1CCN(Cc2cc3nc(-c4cccc5[nH]ncc45)nc(N4CCOCC4)c3s2)CC1 [Pictilisib] (partner 1 µM)
Put shortly: (§1)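 Lung cancer cell lines in 1536-well plates got either a single drug or a fixed anchor-drug dose together with five library-drug doses (not always all listed) in √10 steps, by pin tool, on the day after seeding. Nuclei were counted after 5 days, and relative viability is the treated-to-vehicle ratio of nuclei counts. Values are medians of duplicate plates.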

Compound in the experiment “Erlotinib + Linsitinib”: C#Cc1cccc(Nc2ncnc3cc(OCCOC)c(OCCOC)cc23)c1 [Erlotinib] + C[C@]1(O)C[C@@H](c2nc(-c3ccc4ccc(-c5ccccc5)nc4c3)c3c(N)nccn32)C1 [Linsitinib] (partner 1 µM)
Put shortly: as §1

Compound in the experiment “AT9283 + Foretinib”: O=C(Nc1c[nH]nc1-c1nc2ccc(CN3CCOCC3)cc2[nH]1)NC1CC1 [AT9283] + COc1cc2c(Oc3ccc(NC(=O)C4(C(=O)Nc5ccc(F)cc5)CC4)cc3F)ccnc2cc1OCCCN1CCOCC1 [Foretinib] (partner 0.25 µM)
The method, boiled down: as §1

Compound in the experiment “AT9283 + OSI-027”: O=C(Nc1c[nH]nc1-c1nc2ccc(CN3CCOCC3)cc2[nH]1)NC1CC1 [AT9283] + COc1cccc2cc(-c3nc([C@H]4CC[C@H](C(=O)O)CC4)n4ncnc(N)c34)[nH]c12 [OSI-027] (partner 0.5 µM)
The method, boiled down:
as §1

Compound in the experiment “AT9283 + Phenformin”: O=C(Nc1c[nH]nc1-c1nc2ccc(CN3CCOCC3)cc2[nH]1)NC1CC1 [AT9283] + N=C(N)NC(=N)NCCc1ccccc1 [Phenformin] (partner 250 µM)
The method, boiled down: as §1

Consider EMC-BAC-2, for which the relative viability worked out at 0.543 in the experiment with Erlotinib + Pictilisib (first compound 0.02 µM); 0.535 with Erlotinib + Pictilisib (first compound 0.2 µM); 0.542 with Erlotinib + Pictilisib (first compound 0.6325 µM); 0.47 with Erlotinib + Pictilisib (first compound 2 µM); 0.795 in the experiment with Erlotinib + Linsitinib (first compound 0.02 µM); 0.705 in the experiment with Erlotinib + Linsitinib (first compound 0.2 µM). The relative viability with Erlotinib + Linsitinib (first compound 0.6325 µM) was 0.703; with Erlotinib + Linsitinib (first compound 2 µM), 0.584; in the experiment with AT9283 + Foretinib (first compound 0.003 µM), 1.04; with AT9283 + Foretinib (first compound 0.03 µM), 0.305; with AT9283 + Foretinib (first compound 0.09487 µM) it was 0.289; in the experiment with AT9283 + Foretinib (first compound 0.3 µM), 0.208. Further, the relative viability amounted to 0.369 with AT9283 + OSI-027 (first compound 0.003 µM); 0.325 in the experiment with AT9283 + OSI-027 (first compound 0.03 µM); 0.197 in the experiment with AT9283 + OSI-027 (first compound 0.09487 µM); 0.149 in the experiment with AT9283 + OSI-027 (first compound 0.3 µM); 0.565 in the experiment with AT9283 + Phenformin (first compound 0.003 µM); 0.251 with AT9283 + Phenformin (first compound 0.03 µM). Moreover, the values for the relative viability with AT9283 + Phenformin (first compound 0.09487 µM) and with AT9283 + Phenformin (first compound 0.3 µM) were 0.208 and 0.163, respectively.
Regarding PC-3 [JPC-3], the relative viability with Erlotinib + Pictilisib (first compound 0.02 µM) was 0.573; with Erlotinib + Pictilisib (first compound 0.2 µM), 0.395; with Erlotinib + Pictilisib (first compound 0.6325 µM) it was 0.416; with Erlotinib + Pictilisib (first compound 2 µM), 0.295; in the experiment with Erlotinib + Linsitinib (first compound 0.02 µM) it was 0.829; with Erlotinib + Linsitinib (first compound 0.2 µM), 0.461. For the same cell line, the relative viability with Erlotinib + Linsitinib (first compound 0.6325 µM) is 0.423; with Erlotinib + Linsitinib (first compound 2 µM), 0.385; with AT9283 + Foretinib (first compound 0.003 µM), 1; in the experiment with AT9283 + Foretinib (first compound 0.03 µM), 0.974; with AT9283 + Foretinib (first compound 0.09487 µM), 0.591; with AT9283 + Foretinib (first compound 0.3 µM), 0.543. For the same cell line, the relative viability with AT9283 + OSI-027 (first compound 0.003 µM) amounted to 0.741; with AT9283 + OSI-027 (first compound 0.03 µM), 0.791; in the experiment with AT9283 + OSI-027 (first compound 0.09487 µM), 0.591; with AT9283 + OSI-027 (first compound 0.3 µM), 0.517; in the experiment with AT9283 + Phenformin (first compound 0.003 µM) it was 0.478; in the experiment with AT9283 + Phenformin (first compound 0.03 µM) it was 0.476. Moreover, the values for the relative viability with AT9283 + Phenformin (first compound 0.09487 µM) and in the experiment with AT9283 + Phenformin (first compound 0.3 µM) were 0.423 and 0.377, respectively.
As to LXF-289, the relative viability in the experiment with Erlotinib + Pictilisib (first compound 0.02 µM) came to 0.775; with Erlotinib + Pictilisib (first compound 0.6325 µM), 0.798; with Erlotinib + Pictilisib (first compound 2 µM), 0.704; in the experiment with Erlotinib + Linsitinib (first compound 0.02 µM), 0.966; with Erlotinib + Linsitinib (first compound 0.2 µM), 0.921; in the experiment with Erlotinib + Linsitinib (first compound 0.6325 µM), 0.934. Moreover, the relative viability with Erlotinib + Linsitinib (first compound 2 µM) stood at 0.874; with AT9283 + Foretinib (first compound 0.003 µM), 1; with AT9283 + Foretinib (first compound 0.03 µM), 0.571; with AT9283 + Foretinib (first compound 0.09487 µM), 0.225; with AT9283 + Foretinib (first compound 0.3 µM), 0.109; with AT9283 + OSI-027 (first compound 0.003 µM) it was 0.81. Further, the relative viability in the experiment with AT9283 + OSI-027 (first compound 0.03 µM) turned out to be 0.769; with AT9283 + OSI-027 (first compound 0.09487 µM), 0.166; with AT9283 + OSI-027 (first compound 0.3 µM), 0.0735; in the experiment with AT9283 + Phenformin (first compound 0.003 µM), 0.528; with AT9283 + Phenformin (first compound 0.03 µM), 0.447; with AT9283 + Phenformin (first compound 0.09487 µM), 0.0782. Further, in the experiment with AT9283 + Phenformin (first compound 0.3 µM), the relative viability came to 0.0825.
For NCI-H2126, the relative viability was found to be 0.505 with Erlotinib + Pictilisib (first compound 0.02 µM); 0.396 with Erlotinib + Pictilisib (first compound 0.2 µM); 0.4 with Erlotinib + Pictilisib (first compound 0.6325 µM); 0.379 in the experiment with Erlotinib + Pictilisib (first compound 2 µM); 0.597 in the experiment with Erlotinib + Linsitinib (first compound 0.2 µM); 0.548 with Erlotinib + Linsitinib (first compound 0.6325 µM). Further, the relative viability with Erlotinib + Linsitinib (first compound 2 µM) came to 0.419; in the experiment with AT9283 + Foretinib (first compound 0.003 µM), 1.2; with AT9283 + Foretinib (first compound 0.03 µM) it was 1.18; with AT9283 + Foretinib (first compound 0.09487 µM), 0.652; with AT9283 + Foretinib (first compound 0.3 µM), 0.447; with AT9283 + OSI-027 (first compound 0.003 µM), 0.635. Moreover, the relative viability was 0.808 with AT9283 + OSI-027 (first compound 0.03 µM); 0.75 with AT9283 + OSI-027 (first compound 0.09487 µM); 0.389 with AT9283 + OSI-027 (first compound 0.3 µM); 0.511 with AT9283 + Phenformin (first compound 0.003 µM); 0.575 with AT9283 + Phenformin (first compound 0.03 µM); 0.365 in the experiment with AT9283 + Phenformin (first compound 0.09487 µM). Besides, the relative viability with AT9283 + Phenformin (first compound 0.3 µM) stood at 0.264.
With BEN, the relative viability is 0.466 with Erlotinib + Pictilisib (first compound 0.02 µM); 0.483 in the experiment with Erlotinib + Pictilisib (first compound 0.2 µM); 0.683 in the experiment with Erlotinib + Pictilisib (first compound 0.6325 µM); 0.514 with Erlotinib + Pictilisib (first compound 2 µM); 0.96 with Erlotinib + Linsitinib (first compound 0.02 µM); 0.893 in the experiment with Erlotinib + Linsitinib (first compound 0.2 µM). The relative viability worked out at 1.16 in the experiment with Erlotinib + Linsitinib (first compound 0.6325 µM); 0.891 with Erlotinib + Linsitinib (first compound 2 µM); 0.47 with AT9283 + Foretinib (first compound 0.003 µM); 0.65 in the experiment with AT9283 + Foretinib (first compound 0.03 µM); 0.185 with AT9283 + Foretinib (first compound 0.09487 µM); 0.19 with AT9283 + Foretinib (first compound 0.3 µM). The relative viability was 0.31 in the experiment with AT9283 + OSI-027 (first compound 0.003 µM); 0.296 with AT9283 + OSI-027 (first compound 0.03 µM); 0.24 with AT9283 + OSI-027 (first compound 0.09487 µM); 0.219 with AT9283 + OSI-027 (first compound 0.3 µM); 0.259 with AT9283 + Phenformin (first compound 0.003 µM); 0.253 with AT9283 + Phenformin (first compound 0.03 µM). The relative viability stood at 0.256 in the experiment with AT9283 + Phenformin (first compound 0.09487 µM) and 0.176 with AT9283 + Phenformin (first compound 0.3 µM).
NCI-H3122: the relative viability with Erlotinib + Pictilisib (first compound 0.02 µM) came out at 0.576; with Erlotinib + Pictilisib (first compound 0.2 µM), 0.614; with Erlotinib + Pictilisib (first compound 2 µM), 0.598; in the experiment with Erlotinib + Linsitinib (first compound 0.02 µM) it was 1.04; in the experiment with Erlotinib + Linsitinib (first compound 0.2 µM) it was 1.06; in the experiment with Erlotinib + Linsitinib (first compound 0.6325 µM), 1.02. The relative viability in the experiment with Erlotinib + Linsitinib (first compound 2 µM) worked out at 0.961; with AT9283 + Foretinib (first compound 0.003 µM) it was 0.803; with AT9283 + Foretinib (first compound 0.03 µM), 0.852; with AT9283 + Foretinib (first compound 0.09487 µM), 0.284; with AT9283 + Foretinib (first compound 0.3 µM), 0.0779; with AT9283 + OSI-027 (first compound 0.003 µM), 0.94. Further, the relative viability was determined as 0.645 with AT9283 + OSI-027 (first compound 0.03 µM); 0.201 with AT9283 + OSI-027 (first compound 0.09487 µM); 0.115 with AT9283 + OSI-027 (first compound 0.3 µM); 0.359 with AT9283 + Phenformin (first compound 0.003 µM); 0.334 in the experiment with AT9283 + Phenformin (first compound 0.03 µM); 0.203 with AT9283 + Phenformin (first compound 0.09487 µM). For the same cell line, the relative viability in the experiment with AT9283 + Phenformin (first compound 0.3 µM) was determined as 0.138.

(Values after the supplement of paper PMC10307832.)
